# Experimental data from patent US9145373B2, “Certain kynurenine-3-monooxygenase inhibitors, pharmaceutical compositions, and methods of use thereof” (CHDI FOUNDATION, INC., priority 2008, dated 2015).
# Target: T1, KMO mouse enzyme (Mus musculus, UniProt Q91WN4)
# T1 construct: KMO enzyme prepared at Evotec from mouse liver (4-6 weeks old) via mitochondria isolation; from tissue; host or cells: mouse liver (4-6 weeks old), mitochondria isolation, prepared at Evotec
# Test: KMO mouse enzyme assay: L-Kynurenine hydroxylation to 3-Hydroxy-Kynurenine monitored by LC/MS (MRM)
# Type: biochemical
# Conditions: compound at 10 μM; KMO enzyme from mouse liver mitochondria; read-out: INH.Mouse @ 10 μM
# Procedure: A method of monitoring L-Kynurenine (KYN) hydroxylation to form 3-Hydroxy-Kynurenine (3OH-KYN) by LC/MS is described. Product is quantified by multiple reaction monitoring (MRM method).
# • Compound: Stock concentrations: 10 mM in 100% DMSO • Enzyme: KMO enzyme prepared at Evotec from mouse liver (4-6 weeks old) via mitochondria isolation as described in the literature • Substrate: L-Kynurenine (Sigma: Cat# K3750, stock concentration: 10 mM in 100 mM potassium phosphate buffer, pH 7.4) Assay Conditions: […]
# T1 sequence (Q91WN4 whole entry): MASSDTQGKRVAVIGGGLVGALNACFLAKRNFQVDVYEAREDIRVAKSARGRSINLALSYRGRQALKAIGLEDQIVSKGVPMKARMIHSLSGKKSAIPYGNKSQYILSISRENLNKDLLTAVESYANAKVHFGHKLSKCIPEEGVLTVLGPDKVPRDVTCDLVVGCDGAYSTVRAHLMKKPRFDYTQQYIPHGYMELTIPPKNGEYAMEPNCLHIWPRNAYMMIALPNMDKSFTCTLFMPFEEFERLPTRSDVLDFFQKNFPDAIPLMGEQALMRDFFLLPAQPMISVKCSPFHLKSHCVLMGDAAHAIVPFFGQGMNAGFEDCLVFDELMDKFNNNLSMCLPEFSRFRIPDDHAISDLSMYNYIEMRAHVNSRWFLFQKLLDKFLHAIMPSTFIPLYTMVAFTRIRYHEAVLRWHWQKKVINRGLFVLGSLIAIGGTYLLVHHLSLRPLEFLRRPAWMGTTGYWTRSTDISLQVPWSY
row,inhibition at 10 µM [%],SMILES
1,83.7,"O=C(Nc1nccs1)c1cc(-c2ccc(Cl)c(Cl)c2)ncn1 [6-(3,4-Dichloro-phenyl)-pyrimidine-4-carboxylic acid thiazol-2-ylamide]"
2,100,"COC(=O)c1cc(-c2ccc(F)c(F)c2)ncn1 [6-(3,4-Difluoro-phenyl)-pyrimidine-4-carboxylic acid methyl ester]"
3,84.7,"O=C(Nc1cccnc1)c1cc(-c2ccc(F)c(F)c2)ncn1 [6-(3,4-Difluoro-phenyl)-pyrimidine-4-carboxylic acid pyridin-3-ylamide]"
4,100,"O=C(Nc1cncnc1)c1cc(-c2ccc(F)c(F)c2)ncn1 [6-(3,4-Difluoro-phenyl)-pyrimidine-4-carboxylic acid pyrimidin-5-ylamide]"
5,54.8,"COc1cncc(NC(=O)c2cc(-c3cc(Cl)cc(Cl)c3)ncn2)c1 [6-(3,5-Dichloro-phenyl)-pyrimidine-4-carboxylic acid (5-methoxy-pyridin-3-yl)-amide]"
6,101,"COC(=O)c1cc(-c2cc(Cl)cc(Cl)c2)ncn1 [6-(3,5-Dichloro-phenyl)-pyrimidine-4-carboxylic acid methyl ester]"
7,77.6,"O=C(Nc1ccccc1)c1cc(-c2cc(Cl)cc(Cl)c2)ncn1 [6-(3,5-Dichloro-phenyl)-pyrimidine-4-carboxylic acid phenylamide]"
8,72.2,"O=C(Nc1cccnc1)c1cc(-c2cc(Cl)cc(Cl)c2)ncn1 [6-(3,5-Dichloro-phenyl)-pyrimidine-4-carboxylic acid pyridin-3-ylamide]"
9,100,COC(=O)c1cc(-c2cccc(Cl)c2F)ncn1 [6-(3-Chloro-2-fluoro-phenyl)-pyrimidine-4-carboxylic acid methyl ester]
10,100,COC(=O)c1cc(-c2ccc(F)c(Cl)c2)ncn1 [6-(3-Chloro-4-fluoro-phenyl)-pyrimidine-4-carboxylic acid methyl ester]
11,100,COC(=O)c1cc(-c2ccc(OC)c(Cl)c2)ncn1 [6-(3-Chloro-4-methoxy-phenyl)-pyrimidine-4-carboxylic acid methyl ester]
12,100,COC(=O)c1cc(-c2ccc(C(F)(F)F)c(Cl)c2)ncn1 [6-(3-Chloro-4-trifluoromethyl-phenyl)-pyrimidine-4-carboxylic acid methyl ester]
13,48.3,O=C(Nc1cccnc1)c1cc(-c2ccc(C(F)(F)F)c(Cl)c2)ncn1 [6-(3-Chloro-4-trifluoromethyl-phenyl)-pyrimidine-4-carboxylic acid pyridin-3-ylamide]
14,100,COC(=O)c1cc(-c2cccc(Cl)c2)nc(C)n1 [6-(3-Chloro-phenyl)-2-methyl-pyrimidine-4-carboxylic acid methyl ester]
15,100,Cc1nc(C(=O)O)cc(-c2cccc(Cl)c2)n1 [6-(3-Chloro-phenyl)-2-methyl-pyrimidine-4-carboxylic acid]
16,100,Cn1ccc(NC(=O)c2cc(-c3cccc(Cl)c3)ncn2)n1 [6-(3-Chloro-phenyl)-pyrimidine-4-carboxylic acid (1-methyl-1H-pyrazol-3-yl)-amide]
17,100,Cn1cc(NC(=O)c2cc(-c3cccc(Cl)c3)ncn2)cn1 [6-(3-Chloro-phenyl)-pyrimidine-4-carboxylic acid (1-methyl-1H-pyrazol-4-yl)-amide]
18,97.7,"O=C(Nc1ccc2c(c1)OC(F)(F)O2)c1cc(-c2cccc(Cl)c2)ncn1 [6-(3-Chloro-phenyl)-pyrimidine-4-carboxylic acid (2,2-difluoro-benzo[1,3]dioxol-5-yl)-amide]"
19,98.7,"CN(C(=O)c1cc(-c2cccc(Cl)c2)ncn1)c1ccc2c(c1)OC(F)(F)O2 [6-(3-Chloro-phenyl)-pyrimidine-4-carboxylic acid (2,2-difluoro-benzo[1,3]dioxol-5-yl)-methyl-amide]"
20,95.8,O=C(NCCO)c1cc(-c2cccc(Cl)c2)ncn1 [6-(3-Chloro-phenyl)-pyrimidine-4-carboxylic acid (2-hydroxy-ethyl)-amide]
21,100,COc1ccccc1NC(=O)c1cc(-c2cccc(Cl)c2)ncn1 [6-(3-Chloro-phenyl)-pyrimidine-4-carboxylic acid (2-methoxy-phenyl)-amide]
22,97.8,Cc1ncccc1NC(=O)c1cc(-c2cccc(Cl)c2)ncn1 [6-(3-Chloro-phenyl)-pyrimidine-4-carboxylic acid (2-methyl-pyridin-3-yl)-amide]
23,79,"Cc1noc(C)c1NC(=O)c1cc(-c2cccc(Cl)c2)ncn1 [6-(3-Chloro-phenyl)-pyrimidine-4-carboxylic acid (3,5-dimethyl-isoxazol-4-yl)-amide]"
24,97.1,COc1cccc(NC(=O)c2cc(-c3cccc(Cl)c3)ncn2)c1 [6-(3-Chloro-phenyl)-pyrimidine-4-carboxylic acid (3-methoxy-phenyl)-amide]

row,inhibition at 10 µM [%],SMILES
1,85.4,"Cc1nsc(NC(=O)c2cc(-c3cccc(Cl)c3)ncn2)n1 [6-(3-Chloro-phenyl)-pyrimidine-4-carboxylic acid (3-methyl-[1,2,4]thiadiazol-5-yl)-amide]"
2,100,Cc1cc(NC(=O)c2cc(-c3cccc(Cl)c3)ncn2)on1 [6-(3-Chloro-phenyl)-pyrimidine-4-carboxylic acid (3-methyl-isoxazol-5-yl)-amide]
3,98.9,O=C(Nc1ccc(F)cc1)c1cc(-c2cccc(Cl)c2)ncn1 [6-(3-Chloro-phenyl)-pyrimidine-4-carboxylic acid (4-fluoro-phenyl)-amide]
4,100,COc1ccc(NC(=O)c2cc(-c3cccc(Cl)c3)ncn2)cc1 [6-(3-Chloro-phenyl)-pyrimidine-4-carboxylic acid (4-methoxy-phenyl)-amide]
5,100,COc1ccc(N(C)C(=O)c2cc(-c3cccc(Cl)c3)ncn2)cc1 [6-(3-Chloro-phenyl)-pyrimidine-4-carboxylic acid (4-methoxy-phenyl)-methyl-amide]
6,91,COc1ccncc1NC(=O)c1cc(-c2cccc(Cl)c2)ncn1 [6-(3-Chloro-phenyl)-pyrimidine-4-carboxylic acid (4-methoxy-pyridin-3-yl)-amide]
7,93.6,O=C(Nc1ccc(N2CCOCC2)cc1)c1cc(-c2cccc(Cl)c2)ncn1 [6-(3-Chloro-phenyl)-pyrimidine-4-carboxylic acid (4-morpholin-4-yl-phenyl)-amide]
8,100,COc1cncc(NC(=O)c2cc(-c3cccc(Cl)c3)ncn2)c1 [6-(3-Chloro-phenyl)-pyrimidine-4-carboxylic acid (5-methoxy-pyridin-3-yl)-amide]
9,100,"Cc1nnc(NC(=O)c2cc(-c3cccc(Cl)c3)ncn2)o1 [6-(3-Chloro-phenyl)-pyrimidine-4-carboxylic acid (5-methyl-[1,3,4]oxadiazol-2-yl)-amide]"
10,93.4,COc1ccc(NC(=O)c2cc(-c3cccc(Cl)c3)ncn2)cn1 [6-(3-Chloro-phenyl)-pyrimidine-4-carboxylic acid (6-methoxy-pyridin-3-yl)-amide]
11,85.3,Cc1ccc(NC(=O)c2cc(-c3cccc(Cl)c3)ncn2)cn1 [6-(3-Chloro-phenyl)-pyrimidine-4-carboxylic acid (6-methyl-pyridin-3-yl)-amide]
12,89.1,O=C(Nc1ccc(C(F)(F)F)nc1)c1cc(-c2cccc(Cl)c2)ncn1 [6-(3-Chloro-phenyl)-pyrimidine-4-carboxylic acid (6-trifluoromethyl-pyridin-3-yl)-amide]
13,99.2,C[C@@H](NC(=O)c1cc(-c2cccc(Cl)c2)ncn1)c1ccccc1 [6-(3-Chloro-phenyl)-pyrimidine-4-carboxylic acid ((R)-1-phenyl-ethyl)-amide]
14,74.3,C[C@@H](O)CNC(=O)c1cc(-c2cccc(Cl)c2)ncn1 [6-(3-Chloro-phenyl)-pyrimidine-4-carboxylic acid ((R)-2-hydroxy-propyl)-amide]
15,99.8,C[C@H](NC(=O)c1cc(-c2cccc(Cl)c2)ncn1)c1ccccc1 [6-(3-Chloro-phenyl)-pyrimidine-4-carboxylic acid ((S)-1-phenyl-ethyl)-amide]
16,87.3,C[C@H](O)CNC(=O)c1cc(-c2cccc(Cl)c2)ncn1 [6-(3-Chloro-phenyl)-pyrimidine-4-carboxylic acid ((S)-2-hydroxy-propyl)-amide]
17,96.7,O=C(NCc1cccnc1)c1cc(-c2cccc(Cl)c2)ncn1 [6-(3-Chloro-phenyl)-pyrimidine-4-carboxylic acid (pyridin-3-ylmethyl)-amide]
18,100,O=C(NCc1ccncc1)c1cc(-c2cccc(Cl)c2)ncn1 [6-(3-Chloro-phenyl)-pyrimidine-4-carboxylic acid (pyridin-4-ylmethyl)-amide]
19,97.4,"O=C(Nc1nncs1)c1cc(-c2cccc(Cl)c2)ncn1 [6-(3-Chloro-phenyl)-pyrimidine-4-carboxylic acid [1,3,4]thiadiazol-2-ylamide]"
20,77.5,NC(=O)c1cc(-c2cccc(Cl)c2)ncn1 [6-(3-Chloro-phenyl)-pyrimidine-4-carboxylic acid amide]
21,67,O=C(NCc1ccccc1)c1cc(-c2cccc(Cl)c2)ncn1 [6-(3-Chloro-phenyl)-pyrimidine-4-carboxylic acid benzylamide]
22,100,CN(C)C(=O)c1cc(-c2cccc(Cl)c2)ncn1 [6-(3-Chloro-phenyl)-pyrimidine-4-carboxylic acid dimethylamide]
23,100,CCNC(=O)c1cc(-c2cccc(Cl)c2)ncn1 [6-(3-Chloro-phenyl)-pyrimidine-4-carboxylic acid ethylamide]
